Data reported in patent US10154988B2, “Methods and compositions for treating schizophrenia” (The Johns Hopkins University, priority 2012, dated 2018).
“Also recorded” adds a separate entry of the source.

How the values were obtained:
[1] = test system: Age-Impaired (AI) Long-Evans rats; experiment: Morris Water Maze retention trial, levetiracetam in aged-impaired rats; assay type: in vivo, rat
Procedure: The MWM apparatus consists of a large, circular pool (diameter 1.83 m; height, 0.58 m) filled with water (27° C.) that is made opaque through the addition of non-toxic pigment or some other substance. In the typical “hidden platform” version of the test, rats are trained to find a camouflaged white escape platform (height, 34.5 cm) that is positioned in the center of one quadrant of the maze about 1.0 cm below the water surface. This platform can be retracted to the bottom of the tank or raised to its normal position from outside the maze during behavioral testing. The location of the platform remains constant from trial to trial. Because there are no local cues that mark the position of the platform, the rat's ability to locate it efficiently from any starting position at the perimeter of the pool depends on using information surrounding the maze. The maze is surrounded by black curtains to which white patterns are affixed to provide a configuration of spatial cues. A second platform (height 37.5 cm), with its surface painted black is elevated 2 cm above the water surface during cue training to control for factors unrelated to cognition. The behavior of a rat in the pool is recorded by a camera that is suspended 2.5 m above the center of the pool. The camera is connected to a video tracking system (HVS Image Advanced Tracker VP200) and a PC computer running HVS software developed by Richard Baker of HVS Image, Hampton, UK. The MWM protocol is optimized for sensitivity to the effects of aging on cognition and for measures of reliable individual differences within the aged population of out-bred Long-Evans rats (Gallagher et al. Behav. Neurosci. 107:618-626, (1993)). Rats receive three trials per day for 8 consecutive days, using a 60 sec inter-trial interval. On each training trial, the rat is released into the maze from one of four equally spaced starting positions around the perimeter of the pool. The starting position varies from trial to trial, thus preventing the use of a response strategy (e.g., always turning left from the start location to locate the escape platform). […] Every sixth trial consists of a probe trial to assess the development of spatial bias in the maze. During these trials, the rat swims with the platform being refracted to the bottom of the pool for 30 sec, at which time the platform is raised to its normal position for completion of the escape trial. At the completion of the protocol using the hidden platform, rats are assessed for cue learning using the visible platform. The location of this platform varies from trial to trial in a single session of 6 training trials. […]

[2] = test system: reelin in Entorhinal Cortex (EC2); experiment: reelin mRNA in situ hybridization in entorhinal cortex after 4-week levetiracetam; assay type: in vivo, rat; details: 10 mg/kg/day, osmotic minipumps, 28 days; vs AI-VEH t(13)=2.386, p=0.033
Procedure: Under isoflurane anesthesia, memory-impaired aged rats are implanted subcutaneously in the intrascapular region with osmotic mini-pumps (ALZET,
Durect Corporation, Cupertino, Calif.) with levetiracetam (10 mg/kg/day) or saline vehicle for four weeks prior to perfusion. Young rats, which served as controls, receive either saline vehicle in mini-pumps or no implantation.
At the end of the 4-week treatment period, rats are anesthetized with isoflurane and perfused transcardiacally with 0.1 M phosphate buffer saline, followed by 4% paraformaldehyde in phosphate buffer. Brains are removed and post-fixed in paraformaldehyde overnight. The brains are then moved into 4% paraformaldehyde in phosphate buffer containing 16% sucrose. […]
Probe templates are synthesized as described in Haberman et al. (2008). […] The final probe is resuspended in RNase-free water and the specific activity is determined by scintillation counter.
In situ hybridization is carried out as described by Haberman et al., (2008). […] Slides are dried overnight, exposed to a phosphoimager screen, and quantified by using ImageQuant (GE Healthcare). Digital images are acquired of entorhinal cortical sections from the same levels for all animals and the subregion of interest is outlined and quantified. […]

[3] = 10 mg/kg/day i.p., retention trial

## CC[C@@H](C(N)=O)N1CCCC1=O [levetiracetam, (2S)-2-(2-oxopyrrolidin-1-yl) butanamide]
[1]; 5 mg/kg/day i.p., retention trial
  performance (time in target quadrant) versus vehicle: does not significantly improve
[1]; [3]
  memory as compared to vehicle-treated controls: significantly improved memory
  time spent in the target annulus: effectiveness of the 10 mg/kg/day levetiracetam treatment is also seen
[1]; 10 mg/kg/day i.p., retention trial 24 h after two training days, vehicle approximately 25%
  time spent in the target quadrant, percentage of total swimming time: approximately 35%
[2]
  levels of reelin (mRNA expression) in Entorhinal Cortex (EC2): restores the levels of reelin; also recorded: significantly increases the expression of reelin; also recorded: restores reelin in Entorhinal Cortex (EC2)
